# How the values were obtained:
# [1] = tested on: human cardiac fibroblasts; assay: Mitochondrial membrane potential, mass, superoxide and total ROS by flow cytometry; format: cell-based; details: cultures grown with 1 nM rapamycin, NRTIs 7 days
# Procedure: (§1) Cell culture experiments utilizing NRTIs were of the following design. Cultures of either human lung or cardiac fibroblasts were cultivated according to standard culture protocols for these cells (Cristofalo, et al., Journal of Tissue Culture Methods 1980, 6:117-121). Parallel sets of cultures were maintained in normal growth media or in normal growth media with the addition of 1 nM rapamycin. Cultures were maintained with 1 nM rapamycin (Enzo Biologicals) for two weeks before exposure to NRTIs. Cell cultures were exposed to NRTIs at indicated concentrations in individual experiments (generally 10-20 μg/ml) for 7 days, with a change of media and fresh NRTIs at day 4. Mitochondrial measurements, bioanalyzer measurements, immunoblotting for protein expression and phosphorylation status, and assays for senescence were performed at the end of this 7-day period.
# Cell culture reagents were from Cellgro, unless indicated. WI-38 fetal-lung primary human fibroblasts or human cardiac fibroblasts were grown in MEM supplemented with 10% fetal bovine serum, 1% L-glutamine, MEM vitamins, and MEM non-essential amino acids. Cells were maintained in a 37° C. in 5% CO2 incubator. For treatment studies, cells were treated with 1 nM rapamycin (Enzo Biologicals) for two weeks before treatment with NRTIs. Cells were maintained by trypsinization and reseeding at a cell density of 1×10^4/cm^2 every 7 to 10 days. Emtricitabine (FTC) and tenofovir disoproxil fumarate (TDF) were kindly provided by the NIH AIDS Research & Reference Reagent program. During the 7-day exposure to the NRTIs, the pharmacologic inhibitors PD98059 (10 μM, Santa Cruz Biotechnologies), BI-D1870, GW5074, and SB203580 (10 μM, Enzo Biologicals) were added to the culture medium either during the final 48 hours or for the final 2 hours depending upon the experiment. During the 7-day exposure to NRTIs, Trolox (500 μM) and N-acetylcysteine (100 μM, Acros Organics) were added every other day. Mito-Q (20 nM) and TPP (20 nM) were kindly provided by Dr. Brett Kaufmann at the University of Pennsylvania School of Veterinary Medicine. Vector and mt-catalase adenoviruses (MOI's 25, 50, and 75) were purchased from Gene Transfer Vector Core from the University of Iowa.
# Mitochondrial membrane potential was detected by incubating cells with 25 nM TMRE (Molecular Probes). Mitochondrial mass was evaluated by incubating the cells with 100 nM Mitotracker Green FM (Molecular Probes). Mitochondrial superoxide anion levels were detected by incubating the cells with 5 μM MitoSox Red (Molecular Probes). Total cellular levels of ROS were detected by incubating the cells with 10 μM 2′,7′-dichlorofluoroscein diacetate (DCF-DA; Sigma-Aldrich) in 1% fetal bovine serumsupplemented MEM and washing twice with Krebs Ringer phosphate glucose buffer (145 mM NaCl, 5.7 mM NaH2PO4, 4.86 mM KCL, 0.54 mM CaCl2), 1.22 mM MgSO4, and 5.5 mM glucose) following the incubation period. For the aforementioned assessments, incubation was performed at 37° C. in 5% CO2 for 30 minutes and cells were harvested in 2.5% trypsin-EDTA with serum-containing medium. Cells were immediately analyzed with a Guava EasyCyte Mini employing the Guava Express Plus program (Guava Technologies).
# [2] = tested on: human cardiac fibroblasts; assay: Senescence-associated beta-galactosidase detection; format: cell-based; details: rapamycin treated cultures (1 nM)
# Procedure: as §1
# Assessment of SA-β-gal activity was performed by plating cells following respective treatments at low density (0.5×10^4/cm^2) to prevent false positive staining known to occur in high density cultures. […] Following incubation, cells were washed three times with PBS and at least 500 cells were counted for each sample in triplicates. Positive cells (blue cells) were expressed as a percentage of total cells.
smiles,measurement,setting,value
CO[C@H]1C[C@@H]2CC[C@@H](C)[C@@](O)(O2)C(=O)C(=O)N2CCCC[C@H]2C(=O)O[C@H]([C@H](C)C[C@@H]2CC[C@@H](O)[C@H](OC)C2)CC(=O)[C@H](C)/C=C(\C)[C@@H](O)[C@@H](OC)C(=O)[C@H](C)C[C@H](C)/C=C/C=C/C=C/1C [rapamycin],mitochondrial ROS following exposure to NRTIs,[1],did not exhibit the same level of increase
same,mitochondrial membrane potential following exposure to NRTIs,[1],did not exhibit the same level of increase
same,total cellular ROS following exposure to NRTIs,[1],did not exhibit the same level of increase
same,SA-β-gal following exposure to NRTIs,[2],no increase

# — patent US12714698B2, “Compositions and methods for treating or preventing dermal disorders” (Drexel University, priority 2015, dated 2026)
